Assay [1] addresses T1, Human immunodeficiency virus type 1 integrase (Human immunodeficiency virus 1, UniProt Q7ZJM1). Description: Inhibition of HIV1 integrase 3' processing activity.
Assay [2] deals with T1, Human immunodeficiency virus type 1 integrase. Description: Inhibition of HIV1 integrase strand transfer activity.

T1 sequence (Q7ZJM1 whole entry): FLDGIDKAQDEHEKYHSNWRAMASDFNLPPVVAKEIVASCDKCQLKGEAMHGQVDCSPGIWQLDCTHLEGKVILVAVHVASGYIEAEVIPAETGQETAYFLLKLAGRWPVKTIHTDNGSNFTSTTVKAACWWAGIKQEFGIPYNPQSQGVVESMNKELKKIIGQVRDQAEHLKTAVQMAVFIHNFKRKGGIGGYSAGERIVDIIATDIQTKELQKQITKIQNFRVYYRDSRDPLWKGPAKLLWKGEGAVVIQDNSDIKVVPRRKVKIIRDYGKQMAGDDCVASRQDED

`COC(=O)C(=O)/C=C(\O)c1ccccc1`: the IC50 in assay [1] and in assay [2] was over 333 µM each time.

Take `COC(=O)C(=O)/C=C(\O)c1cccn1Cc1ccc(F)cc1`: the IC50 came to 187 µM in assay [1] and 48 µM in assay [2].

The IC50 is the concentration at which inhibition is half-maximal.

For the origin of these results see ChEMBL document CHEMBL1138095, “From ligand to complexes: inhibition of human immunodeficiency virus type 1 integrase by beta-diketo acid metal complexes” (J Med Chem, 2006).
